2 sequences from US11999806B2, “Broad-spectrum polypeptide against enterovirus and application thereof” (WUHAN INSTITUTE OF VIROLOGY, CHINESE ACADEMY OF SCIENCES, priority 2018, dated 2024) can be followed below.

A short description of data set [1]: Cytotoxicity by CCK-8 in RD cells. The data set is classed as cell-based. The note with it: human.
The test system of a further data set is RD cells. Description: Cytotoxicity by CCK-8 in RD cells. The data set is classed as cell-based. Conditions: RD cells; for Cell viability (%): 24 h; for cytotoxicity, result in words: CCK-8, 24 h.

Where “and” joins values, the source holds several entries; their conditions need not be identical. Identical values can stand only once. Like-named read-outs stand apart in the source and are kept apart here. No end group written: not given here.

Usually viability stands for a read-out of living cells in per cent, often relative to untreated cells. As to YGRKKRRQRRRGSGEAVREYCK [BP8], in data set [1] (RD cells, 3.0625 μM, 24 h, CCK-8 4 h (Example 18), read-out: Cell viability (%)), the viability at 24 h, 3.0625 µM is 102%. Also, the viability at 24 h, 6.125 µM in data set [1] (RD cells, 6.125 μM, 24 h, CCK-8 4 h (Example 18), read-out: Cell viability (%)) worked out at 101%. Besides, the viability at 24 h, 12.5 µM in data set [1] (RD cells, 12.5 μM, 24 h, CCK-8 4 h (Example 18), read-out: Cell viability (%)) turned out to be 94.9%. Also, the viability at 24 h, 25 µM in data set [1] (RD cells, 25 μM, 24 h, CCK-8 4 h (Example 18), read-out: Cell viability (%)) stood at 93.4%. Moreover, in data set [1] (RD cells, 50 μM, 24 h, CCK-8 4 h (Example 18), read-out: Cell viability (%)), the viability at 24 h, 50 µM amounted to 95.2%. In addition, in data set [1] (RD cells, 100 μM, 24 h, CCK-8 4 h (Example 18), read-out: Cell viability (%)), the viability at 24 h, 100 µM stood at 93.1%. Besides, in data set [1] (RD cells, 200 μM, 24 h, CCK-8 4 h (Example 18), read-out: Cell viability (%)), the viability at 24 h, 200 µM was 88.9%. For the same sequence, the CC50 at 24 h in data set [1] (Table 1 summary, cell line not given, read-out: CC50) is above 200 µM. Further, the “Cell viability (%)” value was 103.1369% and 104.4% with RD cells (3.0625 μM, CCK-8 4 h (Example 18)); 103.5158% in the data set with RD cells (6.125 μM, CCK-8 4 h (Example 18)); 99.35% and 104.8421% in the data set on RD cells (12.5 μM, CCK-8 4 h (Example 18)); 97.26% and 99.85% in the data set on RD cells (25 μM, CCK-8 4 h (Example 18)); 94.17% and 97.64% in the data set with RD cells (50 μM, CCK-8 4 h (Example 18)); 93.6% and 96.25% in the data set on RD cells (100 μM, CCK-8 4 h (Example 18)). Besides, the “Cell viability (%)” value in the data set on RD cells (200 μM, CCK-8 4 h (Example 18)) is given as 92.08%. For the same sequence, the “cytotoxicity, result in words” value with RD cells is listed as “not toxic to cells within 200 μM”.

Take YGRKKRRQRRRGSGEEVRQYCR [ER]: the viability at 24 h, 0.46875 µM in data set [1] (RD cells, 0.46875 μM, 24 h, read-out: Cell viability (%)) was 99.9%. In addition, the viability at 24 h, 2.34375 µM in data set [1] (RD cells, 2.34375 μM, 24 h, read-out: Cell viability (%)) was 98.6%. Besides, the viability at 24 h, 4.6875 µM in data set [1] (RD cells, 4.6875 μM, 24 h, read-out: Cell viability (%)) was 99.1%. Also, in data set [1] (RD cells, 9.375 μM, 24 h, read-out: Cell viability (%)), the viability at 24 h, 9.375 µM was found to be 98.5%. Also, the viability at 24 h, 18.75 µM in data set [1] (RD cells, 18.75 μM, 24 h, read-out: Cell viability (%)) was 99%. Also, the viability at 24 h, 37.5 µM in data set [1] (RD cells, 37.5 μM, 24 h, read-out: Cell viability (%)) turned out to be 94.8%. The viability at 24 h, 75 µM in data set [1] (RD cells, 75 μM, 24 h, read-out: Cell viability (%)) was 89.7%. Further, the viability at 24 h, 150 µM in data set [1] (RD cells, 150 μM, 24 h, read-out: Cell viability (%)) was 72.9%. The viability at 24 h, 300 µM in data set [1] (RD cells, 300 μM, 24 h, read-out: Cell viability (%)) worked out at 42.2%. For the same sequence, the CC50 at 24 h in data set [1] (RD cells, CCK-8, 24 h, Example 15, read-out: 50% cytotoxic concentration (CC50)) was determined as 290 µM. Moreover, the “Cell viability (%)” value in the data set on RD cells (0.46875 μM) was 99.34% and 100%; with RD cells (2.34375 μM), 98.07% and 102.7%; in the data set on RD cells (4.6875 μM), 100.8% and 103.1%; in the data set on RD cells (9.375 μM), 98.48% and 102.4%; in the data set with RD cells (18.75 μM), 96.59% and 98.47%; with RD cells (37.5 μM), 95.69% and 92.24%. The “Cell viability (%)” value with RD cells (75 μM) is 89.79% and 90.36%; in the data set with RD cells (150 μM), 74.32% and 76.72%; with RD cells (300 μM), 43.39% and 48.41%. The “cytotoxicity, result in words” value with RD cells is listed as “very low toxicity”.
